The record followed here is patent US12552755B2, “Cinnamic amide derivative having FXR activating effect, pharmaceutical composition containing the same as active ingredient, and method for preparing the same” (KYUNGSUNG UNIVERSITY INDUSTRY COOPERATION FOUNDATION, priority 2019, dated 2026).

In this assay the target is T1, farnesol X receptor (FXR) (Homo sapiens, UniProt Q96RI1).
T1 construct: endogenous in cells; host or cells: HepG2
T1 sequence (Q96RI1 1-486): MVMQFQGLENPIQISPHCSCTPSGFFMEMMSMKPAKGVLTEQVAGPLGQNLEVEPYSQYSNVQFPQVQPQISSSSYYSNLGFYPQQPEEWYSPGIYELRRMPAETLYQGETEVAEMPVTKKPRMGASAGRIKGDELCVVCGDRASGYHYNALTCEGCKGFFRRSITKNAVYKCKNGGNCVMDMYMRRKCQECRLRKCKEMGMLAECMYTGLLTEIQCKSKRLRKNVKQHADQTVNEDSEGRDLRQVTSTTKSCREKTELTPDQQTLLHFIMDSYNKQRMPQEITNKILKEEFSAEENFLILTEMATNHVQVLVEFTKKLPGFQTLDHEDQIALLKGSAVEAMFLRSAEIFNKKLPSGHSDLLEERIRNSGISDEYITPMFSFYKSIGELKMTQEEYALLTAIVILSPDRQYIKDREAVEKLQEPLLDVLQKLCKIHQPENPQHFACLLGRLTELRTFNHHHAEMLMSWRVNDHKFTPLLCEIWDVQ
The assay is described as follows: Farnesol X receptor (FXR) reporter gene assay (dual luciferase) in HepG2 cells. In kind it is cell-based. The following applies: for fold induction at 10 µM: HepG2 cells, drug treatment 24 hours, firefly/renilla luciferase ratio, Con = 1.00; for FXR activating effect compared with GW4064: statement on Table 4 data. As for the experimental part:
HepG2 cells were purchased from ATCC (Manassas, VA, USA) and cultured in Dulbecco's modified Eagle's medium (DMEM; Hyclone) containing 10% fetal bovine serum (FBS, Hyclone, Logan, UT, USA), 50 units/mL penicillin (Hyclone) and 50 μg/mL streptomycin (Hyclone). All cells were cultured to have a confluency of about 80% to 90% under the conditions of 37° C. and 5% Co2.
In order to measure FXR transcription factor activity, HepG2 cells (1×10^5 cells/well) were cultured in a 48-well cell culture plate (SPL Life Science Co., Gyeonggido, Korea) for 20 hours and then transduced using Lipofectamin L3000 (Invitrogen, San Diego, CA, USA). Luciferase is an enzyme that catalyzes light-emitting reactions. A plasmid in which the firefly luciferase gene was fused to farnesol X receptor (FXR) and a plasmid in which the renilla luciferase gene was fused to thymidine kinase (TK) were used for transduction. Reacted were 25 μL of serum and antibiotic-free Opti-MEM® (Life Technologies, Grand Island, NY) and 0.5 μL of Lipofectamin L3000 per 0.5 μg of FXR-firefly luciferase plasmid and 10 ng of TK-renilla luciferase plasmid, and the cells were reacted with the reaction mixture for 24 hours. Thereafter, DMEM medium containing 0.1% serum was treated with a drug for 24 hours. After the reaction was completed, the drug-treated culture medium was discarded, and lysis buffer was added at 0.4 ml/well to remove the cells, then the cells were dispensed into a 96-well white plate (SPL Life Science Co.), and the luminescence level was measured using the Dual-glo Luciferase Assay System (Promega, Madison, WI, USA). For the firefly luciferase activity (to see the level of FXR expression) and renilla luciferase activity (to provide a reference value by showing constant expression), the luminescence level was measured using the GloMax Multi Detection System (Promega) and then the relative ratio (firefly luciferase activity/renilla luciferase activity) was calculated.

A word on the fold induction: it is the signal under treatment as a multiple of the control signal. On to `CCOC(=O)CNC(=O)/C=C/c1ccc(O)cc1` [KS-001, ethyl (E)-(3-(4-hydroxyphenyl)acryloyl)glycinate], for which the fold induction at 10 µM was found to be 1.22.
Regarding `CCOC(=O)CNC(=O)/C=C/c1ccc(OCc2ccccc2)cc1` [KS-002, ethyl (E)-(3-(4-(benzyloxy)phenyl)acryloyl)glycinate], the fold induction at 10 µM is 1.22.
In the case of `CCOC(=O)CNC(=O)/C=C/c1ccc(OCc2ccc(OC(F)(F)F)cc2)cc1` [KS-003, ethyl (E)-(3-(4-((4-(trifluoromethoxy)benzyl)oxy)phenyl)acryloyl)glycinate], the fold induction at 10 µM was 1.1.
In the case of `CCOC(=O)CNC(=O)/C=C/c1ccc(OCc2ccc(-c3ccccc3)cc2)cc1` [KS-004, ethyl (E)-(3-(4-([1,1′-biphenyl]-4-ylmethoxy)phenyl)acryloyl)glycinate], the fold induction at 10 µM was determined as 2.03.
As to `CCOC(=O)CNC(=O)/C=C/c1ccc(OCc2ccc(F)cc2)cc1` [KS-005, ethyl (E)-(3-(4-((4-fluorobenzyl)oxy)phenyl)acryloyl)glycinate], the fold induction at 10 µM was determined as 1.21.
Regarding `CCOC(=O)CNC(=O)/C=C/c1ccc(OCc2ccc([N+](=O)[O-])cc2)cc1` [KS-006, ethyl (E)-(3-(4-((4-nitrobenzyl)oxy)phenyl)acryloyl)glycinate], the fold induction at 10 µM is 1.38.
The same measure, in the same setting: the result for `CCOC(=O)CNC(=O)/C=C/c1ccc(OCc2cccc(OC(F)(F)F)c2)cc1` [KS-007, ethyl (E)-(3-(4-((3-(trifluoromethoxy)benzyl)oxy)phenyl)acryloyl)glycinate] reads 1.02.
Same read-out and setting: the result for `CCOC(=O)CNC(=O)/C=C/c1ccc(OCc2cccc([N+](=O)[O-])c2)cc1` [KS-008, ethyl (E)-(3-(4-((3-nitrobenzyl)oxy)phenyl)acryloyl)glycinate] reads 1.5.
Same read-out and setting: the value for `CCOC(=O)CNC(=O)/C=C/c1ccc(OCc2cc(F)c(F)cc2F)cc1` [KS-009, ethyl (E)-(3-(4-((2,4,5-trifluorobenzyl)oxy)phenyl)acryloyl)glycinate] was 1.44.
As for `CCOC(=O)CNC(=O)/C=C/c1ccc(OCc2c(-c3c(Cl)cccc3Cl)noc2C(C)C)cc1` [KS-010, ethyl (E)-(3-(4-((3-(2,6-dichlorophenyl)-5-isopropylisoxazol-4-yl)methoxy)phenyl)acryloyl)glycinate], the fold induction at 10 µM worked out at 10.5 and the “FXR activating effect compared with GW4064” value is “superior to GW4064”.
Turning to `CCOC(=O)CNC(=O)/C=C/c1ccc(OCc2c(-c3c(Cl)cccc3Cl)noc2C)cc1` [KS-011, ethyl (E)-(3-(4-((3-(2,6-dichlorophenyl)-5-methylisoxazol-4-yl)methoxy)phenyl)acryloyl)glycinate], the fold induction at 10 µM was found to be 1.65.
Regarding `CCOC(=O)CNC(=O)/C=C/c1ccc(OCc2c(-c3ccccc3)noc2C)cc1` [KS-012, ethyl (E)-(3-(4-((5-methyl-3-phenylisoxazol-4-yl)methoxy)phenyl)acryloyl)glycinate], the fold induction at 10 µM is 1.61.
In the case of `O=C(O)CNC(=O)/C=C/c1ccc(O)cc1` [KS-013, (E)-(3-(4-hydroxyphenyl)acryloyl)glycine], the fold induction at 10 µM is 1.46.
Still for that read-out and setting: the value for `O=C(O)CNC(=O)/C=C/c1ccc(OCc2ccccc2)cc1` [KS-014, (E)-(3-(4-(benzyloxy)phenyl)acryloyl)glycine] was 1.42; that for `O=C(O)CNC(=O)/C=C/c1ccc(OCc2ccc(OC(F)(F)F)cc2)cc1` [KS-015, (E)-(3-(4-((4-(trifluoromethoxy)benzyl)oxy)phenyl)acryloyl)glycine] was 2.65.
The same measure, in the same setting: the value for `O=C(O)CNC(=O)/C=C/c1ccc(OCc2ccc(-c3ccccc3)cc2)cc1` [KS-016, (E)-(3-(4-([1,1′-biphenyl]-4-ylmethoxy)phenyl)acryloyl)glycine] was 1.99; that for `O=C(O)CNC(=O)/C=C/c1ccc(OCc2ccc(F)cc2)cc1` [KS-017, (E)-(3-(4-((4-fluorobenzyl)oxy)phenyl)acryloyl)glycine] was 1.14; that for `O=C(O)CNC(=O)/C=C/c1ccc(OCc2ccc([N+](=O)[O-])cc2)cc1` [KS-018, (E)-(3-(4-((4-nitrobenzyl)oxy)phenyl)acryloyl)glycine] was 1.28.
As to `O=C(O)CNC(=O)/C=C/c1ccc(OCc2cccc(OC(F)(F)F)c2)cc1` [KS-019, (E)-(3-(4-((3-(trifluoromethoxy)benzyl)oxy)phenyl)acryloyl)glycine], the fold induction at 10 µM is 1.19.
As to `O=C(O)CNC(=O)/C=C/c1ccc(OCc2cccc([N+](=O)[O-])c2)cc1` [KS-020, (E)-(3-(4-((3-nitrobenzyl)oxy)phenyl)acryloyl)glycine], the fold induction at 10 µM was 1.39.
On to `O=C(O)CNC(=O)/C=C/c1ccc(OCc2cc(F)c(F)cc2F)cc1` [KS-021, (E)-(3-(4-((2,4,5-trifluorobenzyl)oxy)phenyl)acryloyl)glycine], for which the fold induction at 10 µM was found to be 2.01.
Regarding `CC(C)c1onc(-c2c(Cl)cccc2Cl)c1COc1ccc(/C=C/C(=O)NCC(=O)O)cc1` [KS-022, (E)-(3-(4-((3-(2,6-dichlorophenyl)-5-isopropylisoxazol-4-yl)methoxy)phenyl)acryloyl)glycine], the fold induction at 10 µM was 3.34.
On the same count and under the same terms, the value for `Cc1onc(-c2c(Cl)cccc2Cl)c1COc1ccc(/C=C/C(=O)NCC(=O)O)cc1` [KS-023, (E)-(3-(4-((3-(2,6-dichlorophenyl)-5-methylisoxazol-4-yl)methoxy)phenyl)acryloyl)glycine] was 1.93.
The same measure, in the same setting: the value for `Cc1onc(-c2ccccc2)c1COc1ccc(/C=C/C(=O)NCC(=O)O)cc1` [KS-024, (E)-(3-(4-((5-methyl-3-phenylisoxazol-4-yl)methoxy)phenyl)acryloyl)glycine] was 1.68.
In the case of `CCOC(=O)[C@H](C)NC(=O)/C=C/c1ccc(OCc2c(-c3c(Cl)cccc3Cl)noc2C(C)C)cc1` [KS-025, ethyl (E)-(3-(4-((3-(2,6-dichlorophenyl)-5-isopropylisoxazol-4-yl)methoxy)phenyl)acryloyl)-L-alaninate], the fold induction at 10 µM came out at 10.9 and the “FXR activating effect compared with GW4064” value is reported as “superior to GW4064”.
As to `CCOC(=O)[C@H](C)NC(=O)/C=C/c1ccc(OCc2c(-c3c(Cl)cccc3Cl)noc2C)cc1` [KS-026, ethyl (E)-(3-(4-((3-(2,6-dichlorophenyl)-5-methylisoxazol-4-yl)methoxy)phenyl)acryloyl)-L-alaninate], the fold induction at 10 µM turned out to be 1.26.
Take `CCOC(=O)[C@H](C)NC(=O)/C=C/c1ccc(OCc2c(-c3ccccc3)noc2C)cc1` [KS-027, ethyl (E)-(3-(4-((5-methyl-3-phenylisoxazol-4-yl)methoxy)phenyl)acryloyl)-L-alaninate]: the fold induction at 10 µM was found to be 1.04.
With `CC(C)c1onc(-c2c(Cl)cccc2Cl)c1COc1ccc(/C=C/C(=O)N[C@@H](C)C(=O)O)cc1` [KS-028, (E)-(3-(4-((3-(2,6-dichlorophenyl)-5-isopropylisoxazol-4-yl)methoxy)phenyl)acryloyl)-L-alanine], the fold induction at 10 µM turned out to be 7.44 and the “FXR activating effect compared with GW4064” value is given as “superior to GW4064”.
Take `Cc1onc(-c2c(Cl)cccc2Cl)c1COc1ccc(/C=C/C(=O)N[C@@H](C)C(=O)O)cc1` [KS-029, (E)-(3-(4-((3-(2,6-dichlorophenyl)-5-methylisoxazol-4-yl)methoxy)phenyl)acryloyl)-L-alanine]: the fold induction at 10 µM is 1.71.
